Test results reported in US7176239B2, “Methods and compositions for treatment of Ataxia-telangeictasia” (priority 2003, dated 2007).
Structures can show the parent of a compound that is named as a salt.

What was measured:
[1] = test system: AT cells (AT22, ATDM-1, ATDM-2); experiment: Colony forming-efficiency assay, long-term culture with iron chelating agent or quercetin; assay type: cell-based, human; settings: long-term culture (14 days) with increasing concentrations; FIG. 11A, 13A
Description: Preparation of cells is as described previously in Example 1. Colony forming-efficiency experiments were performed as previously described (See R. E. Shackelford et al. The Ataxia telangiectasia Gene Product Is Required for Oxidative Stress-induced G1 and G2 Checkpoint Function in Human Fibroblasts, 276 J. BIOL. CHEM. 21951–21959 (2001)). In brief, exponentially growing cells were plated at 2,000 cells/100 mm tissue culture dish in 10 ml appropriate media with an added iron chelating agent and cultured for 14 days. The resulting colonies were fixed and stained after 14 days culture by water:methanol addition (1:1) containing crystal violet (1 g/L). Colonies consisting of cell clusters containing greater than 50 cells were counted under a dissecting microscope. For experiments involving apoferritin or quercetin pre-exposure on t-BOOH resistance, the cells were allowed to adhere 6 h in increasing aopferritin or quercetin concentrations, washed 4× with 3 ml media, treated with 10 mM t-BOOH, washed 1× with 3 ml media, and allowed to grow for 14 days in 10 ml appropriate media. Data indicates survival as a percentage of untreated cells. […] Standard deviations (error bars) were calculated from each experimental data point divided by the mean untreated value and averaged between triplicate experiments to obtain the mean standard deviation. […]

[2] = test system: AT cells (AT22, ATDM-1, ATDM-2); experiment: Colony forming-efficiency assay, apoferritin/quercetin pretreatment then t-BOOH toxicity; assay type: cell-based, human; settings: 6 h pretreatment with increasing concentrations, then 10 mM t-BOOH, FIG. 12A, 14A
Description: (§1) Preparation of cells is as described previously in Example 1. Colony forming-efficiency experiments were performed as previously described (See R. E. Shackelford et al. The Ataxia telangiectasia Gene Product Is Required for Oxidative Stress-induced G1 and G2 Checkpoint Function in Human Fibroblasts, 276 J. BIOL. CHEM. 21951–21959 (2001)). In brief, exponentially growing cells were plated at 2,000 cells/100 mm tissue culture dish in 10 ml appropriate media with an added iron chelating agent and cultured for 14 days. The resulting colonies were fixed and stained after 14 days culture by water:methanol addition (1:1) containing crystal violet (1 g/L). Colonies consisting of cell clusters containing greater than 50 cells were counted under a dissecting microscope. For experiments involving apoferritin or quercetin pre-exposure on t-BOOH resistance, the cells were allowed to adhere 6 h in increasing aopferritin or quercetin concentrations, washed 4× with 3 ml media, treated with 10 mM t-BOOH, washed 1× with 3 ml media, and allowed to grow for 14 days in 10 ml appropriate media. Data indicates survival as a percentage of untreated cells. The AT22 and VA13 tumor cell lines were used at passages 20–40. The primary NHF1, ATDM-1, and ATDM-2 cell strains were used at passages 6–19. All experiments were done at least twice in triplicate. Standard deviations (error bars) were calculated from each experimental data point divided by the mean untreated value and averaged between triplicate experiments to obtain the mean standard deviation. (FIGS. 11A–14C).

[3] = test system: normal cells (VA13, NHF1); experiment: as above; assay type: cell-based, human; settings: 6 h pretreatment with increasing concentrations, then 10 mM t-BOOH, FIG. 12A, 14A
Description: as §1

ATDM-1, and ATDM-2 cells = experiment: Mitotic delay assay (mitotic index after FeCl2 treatment); assay type: cell-based, human; settings: increasing concentrations of FeCl2, 15 min treatment, 2 h culture; NHF1 cells for comparison; fluorescence microscopy; FIG. 3
Description: Mitotic delay assays were performed as previously described (See R. E. Shackelford et al. The Ataxia telangiectasia Gene Product Is Required for Oxidative Stress-induced G1 and G2 Checkpoint Function in Human Fibroblasts, 276 J. BIOL. CHEM. 21951–21959 (2001)). In brief, cells were plated onto 100 mm tissue culture plates and incubated 48–72 h (to approximately 50% confluency). The cells were then treated with FeCl2 for 15 m as in the colony forming-efficiency assay, washed 2× with media, cultured 2 h, and the media was removed. The cells were fixed in 5 ml cold methanol for 10 min and air-dried. The cells were stained with 0.2 μg/ml 4′,6-diamidino-2-phenylindole (DAPI) in water and examined by fluorescence microscopy. The percentage of mitotic cells (mitotic delay) was determined by counts of 5,000 cells. Mitotic delay experiments were performed in triplicate and the standard deviations were calculated as in the colony forming-efficiency assays. (FIG. 3).

AT cells (AT22) = experiment: Colony forming-efficiency assay, cell survival with increasing CuCl2; assay type: cell-based, human; settings: AT22 versus VA13 cells, increasing concentrations of CuCl2; FIG. 4A
Description: Colony forming-efficiency experiments were performed as previously described (See R. E. Shackelford et al. The Ataxia telangiectasia Gene Product Is Required for Oxidative Stress-induced G1 and G2 Checkpoint Function in Human Fibroblasts, 276 J. BIOL. CHEM. 21951-21959 (2001)). In brief, exponentially growing cells were plated at 2,000 cells/100 mm tissue culture dish in 10 ml appropriate media, allowed to adhere 6 h, […], aspirin, diethylenetriaminepentaacetic acid (DTPA), hygromycin, and desferrioxamine mesylate were obtained from Sigma Chemical Corp (St. Louis, Mo.). Fetal calf serum (FCS) and Dulbecco's Modified Eagle's Medium (DMEM) were obtained from Invitrogen (Rockville, Md.). Culture dishes were obtained from Becton Dickinson (Franklin Lakes, N.J.).
Following treatment, the pates were washed 2× with media, the media replaced, and colonies fixed and stained after 14 days in culture by water: methanol addition (1:1) containing crystal violet (1 g/L). Colonies consisting of cell clusters containing greater than 50 cells were counted under a dissecting microscope. […] Standard deviations (error bars) were calculated from each experimental data point divided by the mean untreated value and averaged between experiments to obtain the mean standard deviation. […]

[4] = test system: AT cells (AT22, ATDM-1, ATDM-2); experiment: Colony forming-efficiency assay, desferrioxamine/aspirin pretreatment then t-BOOH toxicity; assay type: cell-based, human; settings: for resistance to the toxic effects of t-BOOH exposure versus length of pretreatment / resistance to the toxic effects of t-BOOH versus concentration of pretreatment agent: AT22 cells; for resistance to the toxic effects of t-BOOH exposure versus length of pretreatment / resistance to t-BOOH toxicity (cell survival, percentage of untreated cells): desferrioxamine 100 μM, aspirin 0.3 mM; for resistance to the toxic effects of t-BOOH exposure versus length of pretreatment: FIG. 9; for resistance to the toxic effects of t-BOOH versus concentration of pretreatment agent: increasing concentrations of desferrioxamine or aspirin, FIG. 10A/10B; for resistance to t-BOOH toxicity (cell survival, percentage of untreated cells): pretreatment, increasing concentrations of t-BOOH, FIG. 8A
Description: Colony forming-efficiency experiments were performed as previously described (See R. E. Shackelford et al. The Ataxia telangiectasia Gene Product Is Required for Oxidative Stress-induced G1 and G2 Checkpoint Function in Human Fibroblasts, 276 J. BIOL. CHEM. 21951-21959 (2001)). In brief, exponentially growing cells were plated at 2,000 cells/100 mm tissue culture dish in 10 ml appropriate media, allowed to adhere 6 h, and treated 15 min with varying concentrations of t-BOOH or FeCl2 FeCl2, aspirin, diethylenetriaminepentaacetic acid (DTPA), hygromycin, and desferrioxamine mesylate were obtained from Sigma Chemical Corp (St. Louis, Mo.). Fetal calf serum (FCS) and Dulbecco's Modified Eagle's Medium (DMEM) were obtained from Invitrogen (Rockville, Md.). Culture dishes were obtained from Becton Dickinson (Franklin Lakes, N.J.).
Following treatment, the pates were washed 2× with media, the media replaced, and colonies fixed and stained after 14 days in culture by water: methanol addition (1:1) containing crystal violet (1 g/L). Colonies consisting of cell clusters containing greater than 50 cells were counted under a dissecting microscope. Unless otherwise noted, where desferrioxamine and/or aspirin pretreatment was employed, the cells were plated in desferrioxamine, aspirin, or desferrioxamine and aspirin, and allowed to adhere for 6 h. The plates were then washed 4× with media and treated with t-BOOH as above. Data indicates survival as a percentage of untreated cells. The AT22 and VA13 tumor cell lines were used at passages 20–40. The primary NHF1, ATDM-1, and ATDM-2 cell strains were used at passages 6–18. pEBS7 and pEBS7-YZ5 cells were used at passages 15–20. All experiments were done at least twice in triplicate. Standard deviations (error bars) were calculated from each experimental data point divided by the mean untreated value and averaged between experiments to obtain the mean standard deviation. (FIGS. 6–10B).

AT cells = AT cells treated with the antioxidant; Gatei et al. 2001; cited from earlier work

## O=c1c(O)c(-c2ccc(O)c(O)c2)oc2cc(O)cc(O)c12 [quercetin]
[1]
  plating efficiency (cell survival, percentage of untreated cells): increases the plating efficiency
[2]
  resistance to t-BOOH toxicity (cell survival, percentage of untreated cells): increased resistance to t-BOOH toxicity
[3]
  resistance to t-BOOH toxicity (cell survival, percentage of untreated cells): increased resistance to t-BOOH toxicity

## [Cl][Fe][Cl] [FeCl2]
ATDM-1, and ATDM-2 cells
  mitotic activity (percentage of the mitotic index of the mock-treated population), G2 checkpoint: induces a pATM-dependent G2 checkpoint

## [Cl][Cu][Cl] [CuCl2]
AT cells (AT22)
  cell survival (percentage of untreated cells), sensitivity to CuCl2: increased sensitivity

## CC(=O)N(O)CCCCCNC(=O)CCC(=O)N(O)CCCCCNC(=O)CCC(=O)N(O)CCCCCN [desferrioxamine, desferrioxamine mesylate]
[4]
  resistance to the toxic effects of t-BOOH exposure versus length of pretreatment: increases with longer exposure
  resistance to the toxic effects of t-BOOH versus concentration of pretreatment agent: increase the resistance
  resistance to t-BOOH toxicity (cell survival, percentage of untreated cells): increased resistance to t-BOOH toxicity

## O=C(O)CCCCC1CCSS1 (stereo not drawn) [a-lipoic acid]
AT cells
  genotoxic stress-induced proteins: lowered

## apoferritin
[1]
  plating efficiency (cell survival, percentage of untreated cells): increases the plating efficiency
[2]
  resistance to t-BOOH toxicity (cell survival, percentage of untreated cells): increased resistance to t-BOOH toxicity
[3]
  resistance to t-BOOH toxicity (cell survival, percentage of untreated cells): increased resistance to t-BOOH toxicity

## CC(=O)Oc1ccccc1C(=O)O [aspirin]
[4]
  resistance to the toxic effects of t-BOOH exposure versus length of pretreatment: increases with longer exposure
  resistance to the toxic effects of t-BOOH versus concentration of pretreatment agent: increase the resistance
  resistance to t-BOOH toxicity (cell survival, percentage of untreated cells): increased resistance to t-BOOH toxicity
